Laboratory results published in PMC5704756, “Hydrolysis, polarity, and conformational impact of C-terminal partially fluorinated ethyl esters in peptide models” (Beilstein Journal of Organic Chemistry, 2017).
“And” between values parts separate entries of the source, which are not always exact repeats. Equal values may be shown once. Read-outs that look alike come from different tables or passages of the source. Peptide text beside a SMILES is read from it. * marks the point of attachment. X1 = FC(F)CO*

Experiments:
[1] = Partitioning between octan-1-ol and water (NMR detection); format: physicochemical; settings: for logP at 24 h: 298 K, 24 hours partitioning, NMR; for ΔlogP vs 4: relative to compound 4
Method: To characterize the lipophilicity, esters 1–5 were subjected to 24 hours of partitioning between octan-1-ol and water at 298 K. The resulting partition is illustrated in Figure 3. […] The lipophilicity of 2,2-difluoroethyl derivative 4 is nearly identical to that of parent ethyl ester 2, and the relative difference in the logP from the increase (5 vs 4, ΔlogP = +0.53 ± 0.13) and decrease (3 vs 4, ΔlogP = −0.45 ± 0.13) in the number of fluorine atoms are equivalent to one methyl group difference (2 vs 1, ΔlogP = +0.44 ± 0.08). The amplitude of the change is similar to that reported recently for the corresponding fluorinated ethanols. Importantly, C-terminal esterification maintains a much higher lipophilicity compared with the C-terminal amide 7 (Table 1).
To 4–5 mg analyte, octan-1-ol (1.00 mL) and deionized water (1.00 mL) were added. The mixture was shaken gently at ambient temperature (298 ± 2 K) for 24 hours. Each phase (200 μL) was sampled using identical NMR tubes, and acetonitrile-d3 (300 μL) was added to each sample. The NMR measurements were performed by ^1H or ^19F detection at 298 K using calibrated 90-degree pulses and one-scan experiments in order to ensure complete pre-relaxation. The same acquisition parameters were used for the octan-1-ol and water samples; for processing, only the zero phase was adjusted. The spectra were baseline corrected, and equivalent resonances were integrated. The ratio between the signal intensities was considered as the partitioning constant. The partitioning experiments were performed in triplicate. Subsequent addition of water and octan-1-ol was performed in forward and reverse manner, and the resulting partitioning constants were identical within experimental error.

[2] = parameters: method as in doi:10.1002/ijch.201600106; settings: 310 K, amide rotation, value is k∙10^3, ref [69]; cited from earlier work
[3] = Hydrolytic stability of esters 1–5 in aqueous potassium phosphate buffer, monitored by 1H and 19F NMR; format: physicochemical; settings: for τ½, min (aq buffer): ester hydrolysis; for half-life at 0.5 mM: aqueous potassium phosphate buffer
From the text: The kinetic stability of the ester linkage in the aqueous medium is of critical importance, as it further defines the time window for the reactions with the corresponding esters under the biologically relevant conditions of aqueous buffers. Hydrolysis of the C-terminal esters has been fairly well described in the literature, indicating the hydrolysis occurs via a pseudo-first order reaction in a buffered medium assuming that [HO^−] is constant (Equations 1–3): […]
Next, we determined the half-life values following the above mentioned kinetic model for esters 1–5 in aqueous medium at pH 11 and 298 K (Figure 2). […] For the subsequent fluorine atoms, the hydrolysis rate increased by a factor of 3–4 for each appended fluorine atom. […] Extrapolation to pH 8.0 gives a value of 107 ± 28 hours. (This procedure requires multiplication by 1000.) We experimentally determined the half-life of 5 at pH 8 to be 102 ± 2 hours, which agrees well with the extrapolation. The mutual consistency of the values determined with different kinetic modes (minutes at pH 11, days at pH 8) provides a good indication of their accuracy.
Aqueous potassium phosphate buffer (100 mM) at pH 11.0 or 8.0 was mixed with 1:10 (v/v) deuterium oxide to give 550 μL of 91 mM buffer. The analyte 1–5 was added from a 200 mM stock solution in deuterium oxide to give 0.5 mM analyte. The first NMR spectra were collected within 4 min following addition of the analyte. The monitoring was continued by recording ^1H and ^19F NMR spectra at regular time points until >50% hydrolysis. Ambient temperature was maintained at 298 ± 1 K. The decay of the integral intensity of the analyte was quantified by integration. Plotting the logarithm of the intensity versus time delivered the kinetic constant, which was converted to the half-life time (squared correlation coefficient > 0.90). The experiments were performed in triplicate.

[4] = Amide rotational thermodynamics and kinetics (trans/cis isomerism) by NMR / EXSY; format: physicochemical; settings: for Ktrans/cis in C6D6: C6D6 (ε 2.27); for Ktrans/cis in C6D6 / Ktrans/cis in CD2Cl2 / Ktrans/cis in CD3CN / Ktrans/cis in CD3OD / Ktrans/cis in CDCl3 / Ktrans/cis in D2O: 298 K; for Ktrans/cis in C6D6 / Ktrans/cis in D2O: analyte 50 ± 10 mM; for k∙10^3 cis→trans in C6D6 / k∙10^3 trans→cis in C6D6: C6D6, 298 K; for k∙10^3 cis→trans in C6D6 / k∙10^3 trans→cis in C6D6 / k∙10^3 cis→trans in D2O / k∙10^3 trans→cis in D2O: EXSY NMR, amide rotation, value is k∙10^3; for Ktrans/cis in CD2Cl2: CD2Cl2 (ε 8.93); for Ktrans/cis in CD3OD: CD3OD (ε 32.7); for Ktrans/cis in CDCl3: CDCl3 (ε 4.81); for Ktrans/cis in D2O: D2O (ε 80.1), 1H/19F NMR; for k∙10^3 cis→trans in D2O / k∙10^3 trans→cis in D2O: 310 K
From the text: For 1–5, we found the trans/cis ratios ≈ 5 for all five esters when measured in aqueous medium; the kinetic parameters of the amide rotation were also nearly identical (Table 2). We then noticed that the trans/cis ratios measured for the fluorine-labeled esters 3–5 in nonpolar solvents (such as benzene) were systematically higher relative to the reference compounds 1 and 2. We tested the relative increase in the trans-amide preference ΔΔG as a function of solvent (Equation 4) and found a dependence of this parameter on the dielectric constant, as would be expected from an electrostatic interaction between the polar alkoxy group and the amide moiety (Figure 4).
The amide rotational thermodynamic and kinetic measurements were performed by NMR as described in [50, 68]. The equilibrium ratio between the rotameric states was obtained from the ^1H, ^19F and ^19F{^1H} (inverse-gated decoupling) spectra at 298 K by integration. The kinetics was measured in ^1H and/or ^19F{^1H} z-cross-relaxation experiments at either 310 K (for deuterium oxide samples) or 298 K (for benzene samples). The Jαβ-coupling values were obtained by visual inspection of the α-CH resonances in the ^1H NMR spectra, and the accuracy was defined by the length of the time domain spectrum at approximately 0.3 Hz. The semi-empirical calculations were performed by using the PM6 algorithm from the MOPAC package. DFT geometry optimization of the 5 amide rotamers was performed using B88-PW91 GGA with the DZVP basis set.

[5] = Hydrolysis of C-terminal 2,2-difluoroethyl esters of oligopeptides in buffered deuterium oxide by 19F NMR; format: physicochemical; settings: for τ½ of ester hydrolysis (value in brackets, alternative kinetic model) / τ½ of ester hydrolysis (value outside brackets): buffered deuterium oxide, pH 7.0, 298 K; for τ½ of ester hydrolysis (value in brackets, alternative kinetic model): first (zero) order kinetic model; for τ½ of ester hydrolysis (value outside brackets): Equation 7 (zero order), first (zero) order model; for charge-induced hydrolysis acceleration factor vs 8b: pH 7, 9b, 10b vs 8b
From the text: Finally, we tested hydrolytic stability in esterified peptides 8b, 9b and 10b by observing hydrolysis of the ester using ^19F NMR in buffered deuterium oxide (pH 7). We expected pseudo-first order kinetics as for the hydrolysis of esters 1–5 at pH 11. Nonetheless, for the peptide esters 8b, 9b and 10b, the experimental decay (Figure 7) of the ester concentration resembled pseudo-zero order kinetics, which was also observed for another amino acid ester hydrolysis not shown here.
Circular dichroism spectra were recorded in a 1 mm quartz cell at 298 K in methanol (HPLC grade) or aqueous potassium phosphate buffer (50 mM, pH 7.01 at 297 K). The peptide concentration was 100 μM as determined gravimetrically. The mean residue absorption difference Δε was calculated assuming 6 residues for peptides 8a–c, 10a–c and 3 residues for peptides 9a–c. Hydrolysis was measured in deuterium oxide solution of a 150 mM potassium phosphate buffer. The buffer pH 7.01 was adjusted in water at 298 K. It was then lyophilized, then dissolved in deuterium oxide. The peptides were dissolved in the buffer, and the resulting samples were kept at 298 ± 2 K, while the ^19F NMR measurements were conducted at several time points. The starting concentrations of the analytes were 8 mM for 8b, 5 mM for 9b and 2.5 mM for 10b. The half-life was calculated using the first (zero) order kinetic model.

[6] = pH 11.0, 298 K, pseudo-first order

Row | SMILES | logP at 24 h ([1]; octan-1-ol/water) | τ½, min (aq buffer) [3, 6] | Ktrans/cis in C6D6 [4] | k∙10^3 cis→trans in C6D6 [4] | k∙10^3 trans→cis in C6D6 [4] | Ktrans/cis in CD2Cl2 [4] | Ktrans/cis in CD3CN [4] | Ktrans/cis in CD3OD [4] | Ktrans/cis in CDCl3 [4] | Ktrans/cis in D2O [4] | k∙10^3 cis→trans in D2O [4] | k∙10^3 trans→cis in D2O [4] | τ½ of ester hydrolysis (value in brackets, alternative kinetic model) [5] | further results
1 | COC(=O)C1CCCN1C(C)=O (stereo not drawn) [compound 1, Methyl N-acetylprolinate] | -0.44 ± 0.05 | 224 ± 20 (pH 11.0) min | 5.10 ± 0.10 | 342 ± 10 s^−1 | 67 ± 2 s^−1 | 4.18±0.03 | 4.08±0.04 | 3.78±0.03 | 3.84±0.04 | 4.94 ± 0.05 | – | – | – | k∙10^3 cis→trans in D2O [2]: 33 ± 2^c s^−1; k∙10^3 trans→cis in D2O [2]: 7.0 ± 0.5^c s^−1
2 | CCOC(=O)C1CCCN1C(C)=O (stereo not drawn) [compound 2, Ethyl N-acetylprolinate] | 0 | 603 ± 58 (pH 11.0) min | 4.67 ± 0.03 | 309 ± 14 s^−1 | 67 ± 2 s^−1 | 3.52±0.03 | 3.58±0.04 | 3.49±0.04 | 3.20±0.04 | 4.60 ± 0.08 | 20 ± 5 s^−1 | 6 ± 1 s^−1 | – | ΔlogP vs 1 ([1]; octan-1-ol/water, relative to compound 1): +0.44 ± 0.08
3 | CC(=O)N1CCC[C@H]1C(=O)OCCF [compound 3, 2-Fluoroethyl N-acetylprolinate] | – | 80 ± 14 (pH 11.0) min | 6.80 ± 0.04 | 348 ± 11 s^−1 | 52 ± 2 s^−1 | 4.77±0.10 | 4.12±0.17 | 3.61±0.03 | 4.44±0.20 | 4.74 ± 0.04 | 30 ± 2 s^−1 | 7 ± 1 s^−1 | – | logP at 24 h [1]: -0.43 ± 0.07; ΔlogP vs 4 ([1]; octan-1-ol/water): −0.45 ± 0.13
4 | CC(=O)N1CCC[C@H]1C(=O)OCC(F)F [compound 4, 2,2-Difluoroethyl N-acetylprolinate] | 0.02 | 19.7 ± 2.5 (pH 11.0) min | 9.06 ± 0.26 | 430 ± 17 s^−1 | 47 ± 2 s^−1 | 6.57±0.14 | 4.85±0.07 | 4.12±0.03 | 6.29±0.22 | 4.95 ± 0.05 | 32 ± 4 s^−1 | 7 ± 1 s^−1 | – | half-life at 0.5 mM ([3]; pH 7, extrapolated from pH 11 value, read-out: half-life extrapolated to pH 7.0 (converted)): 3290 h
5 | CC(=O)N1CCC[C@H]1C(=O)OCC(F)(F)F [compound 5, 2,2,2-Trifluoroethyl N-acetylprolinate] | 0.55 | 6.4 ± 1.7 min | 10.04 ± 0.15 | 477 ± 13 s^−1 | 48 ± 2 s^−1 | 7.07±0.11 | 5.65±0.05 | 4.49±0.05 | 6.65±0.18 | 5.48 ± 0.14 | 35 ± 5 s^−1 | 6 ± 1 s^−1 | – | ΔlogP vs 4 ([1]; octan-1-ol/water): +0.53 ± 0.13; half-life at 0.5 mM ([3]; pH 8, extrapolated from pH 11 value (multiplication by 1000), read-out: half-life, extrapolation to pH 8.0 (converted)): 107 ± 28 h; half-life at 0.5 mM ([3]; pH 8, pH 8, 298 K, read-out: half-life at pH 8, experimentally determined (converted)): 102 ± 2 h; τ½, min (aq buffer) ([3]; pH 8.0, 298 K): 6112 ± 70 min
6 | CC(=O)N1CCC[C@H]1C(N)=O [compound 7, reference compound] | -1.57 ± 0.1 | – | – | – | – | – | – | – | – | – | – | – | – | –
7 | CC(=O)N1CCC[C@H]1C(=O)N1CCC[C@H]1C(=O)N1CCC[C@H]1C(=O)N1CCC[C@H]1C(=O)N1CCC[C@H]1C(=O)N1CCC[C@H]1C(=O)OCC(F)F [peptide 8b, Ac(Pro)6OCH2CHF2] (Ac-PPPPPP-X1) | – | – | – | – | – | – | – | – | – | – | – | – | 139 ± 20 days | –
8 | CC(=O)N[C@@H](CCCCN)C(=O)N[C@@H](CCCCN)C(=O)N[C@@H](CCCCN)C(=O)OCC(F)F [peptide 9b, Ac(Lys)3OCH2CHF2∙3HCl] | – | – | – | – | – | – | – | – | – | – | – | – | 4.5 ± 0.5 days | τ½ of ester hydrolysis (value outside brackets) [5]: 5.0 ± 0.3 days and 5.0 ± 0.5 days; charge-induced hydrolysis acceleration factor vs 8b [5]: ≈ 30
9 | CC(=O)N[C@@H](CCCCN)C(=O)N[C@@H](CCCCN)C(=O)N[C@@H](CCCCN)C(=O)N[C@@H](CCCCN)C(=O)N[C@@H](CCCCN)C(=O)N[C@@H](CCCCN)C(=O)OCC(F)F [peptide 10b, Ac(Lys)6OCH2CHF2∙6HCl] | – | – | – | – | – | – | – | – | – | – | – | – | 3.7 ± 0.3 days | τ½ of ester hydrolysis (value outside brackets) [5]: 4.0 ± 0.3 days; charge-induced hydrolysis acceleration factor vs 8b [5]: ≈ 30
